According to patent publication EP0326329B1, “Quinazoline derivatives useful as insecticides” (Dow AgroSciences LLC, priority 1988, dated 1989):

Assays:
Assay type in all cases: in vivo
[1] = system: Pseudoperonospora cubensis (downy mildew); experiment: Greenhouse Test 1, foliar spray fungicide screen (DOWN MDEW), host squash; settings: disease control rating, 400 ppm (+++ at 100 ppm)
[2] = system: Twospotted spider mites (Tetranychus urticae Koch); experiment: Mite/insect screen, sprayed squash cotyledons (SM); settings: Tetranychus urticae, percent mortality, read-out: SM RESULTS %; for mortality at 400 ppm: spray rate 400 ppm; for mortality at 200 ppm: spray rate 200 ppm
Procedure: (§1) The compounds of Examples 1-203 were tested for miticidal and insecticidal activity in the following mite/insect screen.
(§2) Each test compound was formulated by dissolving the compound in acetone/alcohol (50:50) mixture containing 23 g of "TOXIMUL R" (sulfonate/nonionic emulsifier blend) and 13 g of "TOXIMUL S" (sulfonate/nonionic emulsifier blend) per liter. These mixtures were then diluted with water to give the indicated concentrations.
(§3) Other plants in the same treatment pot were left uninfested. The leaves were then sprayed with 5 ml of test solution using a DeVilbiss atomizing sprayer at 10 psi. Both surfaces of the leaves were covered until runoff, and then allowed to dry for one hour. Two uninfested leaves were then excised and placed into a Petri dish containing larval southern armyworm (Spodopetra eridania Cramer).
(§4) After standard exposure periods, percent mortality and phytotoxicity were evaluated. […]

[3] = system: Pyricularia oryzae (rice blast); settings: disease control rating, foliar spray, host rice; 400 ppm (+++ at 100 ppm)
[4] = system: southern armyworm (Spodopetra eridania Cramer); experiment: Mite/insect screen, sprayed squash leaves (SAW); settings: Spodoptera eridania, percent mortality, read-out: SAW RESULTS %; for mortality at 400 ppm: spray rate 400 ppm; for mortality at 200 ppm: spray rate 200 ppm
Procedure: as §1, §2, §3, §4

[5] = system: Southern corn rootworm (Diabrotica undecimpuctata howardi Barber); experiment: Mite/insect screen, soil treatment (CRW); settings: Diabrotica, percent mortality, soil treatment, read-out: CRW RESULTS %; for mortality at 24 ppm: CRW rate 24.00 ppm; for mortality at 12 ppm: CRW rate 12.00 ppm
Procedure: as §1, §2
Activity on Southern corn rootworm (Diabrotica undecimpuctata howardi Barber) was evaluated by adding two ml of tap water, a presoaked corn seed, and 15 g of dry sandy soil to a one ounce plastic container. The soil was treated with 1 mL of test solution containing a pre-determined concentration of test compound. After six to 12 hours of drying, five 2-3 instar corn rootworm larvae were added to the individual cups, which were then capped and held at 23°C.
as §4

[6] = system: Erysiphe graminis tritici (powdery mildew); experiment: Greenhouse Test 1, foliar spray fungicide screen (POWD MDEW), host wheat; settings: disease control rating, 400 ppm (+++ at 100 ppm)
[7] = system: Botrytis cinerea (gray mold); experiment: Greenhouse Test 1, foliar spray fungicide screen (GRAY MOLD), host grape berries; settings: disease control rating, 400 ppm (+++ at 100 ppm)
[8] = system: melon aphids (Aphis gossypii Glover); experiment: Mite/insect screen, sprayed squash cotyledons (MA); settings: Aphis gossypii, percent mortality, read-out: MA RESULTS %; for mortality at 400 ppm: spray rate 400 ppm; for mortality at 200 ppm: spray rate 200 ppm
Procedure: as §1, §2, §3, §4

[9] = system: Puccinia recondita tritici (leaf rust); experiment: Greenhouse Test 1, foliar spray fungicide screen (LEAF RUST), host wheat; settings: disease control rating, 400 ppm (+++ at 100 ppm)

Row | Compound | DOWN MDEW [1] | mortality at 400 ppm [2] [%] | RICE BLAST [3] | mortality at 400 ppm [4] [%] | mortality at 24 ppm [5] [%] | POWD MDEW [6] | GRAY MOLD [7] | mortality at 400 ppm [8] [%] | LEAF RUST [9] | mortality at 200 ppm [2] [%] | mortality at 200 ppm [4] [%] | mortality at 12 ppm [5] [%] | mortality at 200 ppm [8] [%]
1 | Fc1cccc2c(OCCc3ccc(Oc4ccccc4)cc3)ncnc12 [Example 10, 8-fluoro-4-[2-(4-phenoxyphenyl)ethoxy]quinazoline] | +++ (+++ = 90-100% control at 100 ppm) | 0 | +++ (+++ = 90-100% control at 100 ppm) | 100 | 0 | +++ (+++ = 90-100% control at 100 ppm) | - (- = 0-19% control at 400 ppm) | 0 | +++ (+++ = 90-100% control at 100 ppm) |  |  |  | 
2 | Clc1ccccc1CCOc1ncnc2ccccc12 [Example 11, 4-[2-(2-chlorophenyl)ethoxy]quinazoline] | +++ (+++ = 90-100% control at 100 ppm) | 0 | - (- = 0-19% control at 400 ppm) | 0 | 0 | ++ (++ = 90-100% control at 400 ppm) | - (- = 0-19% control at 400 ppm) | 0 | ++ (++ = 90-100% control at 400 ppm) |  |  |  | 
3 | COc1cccc(CCOc2ncnc3ccccc23)c1 [Example 13, 4-[2-(3-methoxyphenyl)ethoxy]quinazoline] | +++ (+++ = 90-100% control at 100 ppm) | 90 | +++ (+++ = 90-100% control at 100 ppm) | 0 | 0 | +++ (+++ = 90-100% control at 100 ppm) | - (- = 0-19% control at 400 ppm) | 90 | +++ (+++ = 90-100% control at 100 ppm) |  |  |  | 
4 | COc1ccccc1CCOc1ncnc2ccccc12 [Example 14, 4-[2-(2-methoxyphenyl)ethoxy]quinazoline] | ++ (++ = 90-100% control at 400 ppm) | 0 | + (+ = 20-89% control at 400 ppm) | 0 | 0 | + (+ = 20-89% control at 400 ppm) | - (- = 0-19% control at 400 ppm) | 0 | + (+ = 20-89% control at 400 ppm) |  |  |  | 
5 | CCOc1ccc(CCOc2ncnc3ccccc23)cc1 [Example 15, 4-[2-(4-ethoxyphenyl)ethoxy]quinazoline] | +++ (+++ = 90-100% control at 100 ppm) | 0 | +++ (+++ = 90-100% control at 100 ppm) | 0 | 0 | +++ (+++ = 90-100% control at 100 ppm) | - (- = 0-19% control at 400 ppm) | 0 | +++ (+++ = 90-100% control at 100 ppm) |  |  |  | 
6 | CC(C)c1ccc(CCOc2ncnc3c(F)cccc23)cc1 [Example 16, 8-fluoro-4-[2-[4-(i-propyl)phenyl]ethoxy]-quinazoline] | +++ (+++ = 90-100% control at 100 ppm) | 0 | +++ (+++ = 90-100% control at 100 ppm) | 0 | 0 | +++ (+++ = 90-100% control at 100 ppm) | - (- = 0-19% control at 400 ppm) | 0 | +++ (+++ = 90-100% control at 100 ppm) |  |  |  | 
7 | CC(CNc1ncnc2c(F)cccc12)c1ccc(Cl)cc1 (stereo not drawn) [Example 17, N-[2-(4-chlorophenyl)propyl]-8-fluoro-4-quinazolinamine] | +++ (+++ = 90-100% control at 100 ppm) | 100 | +++ (+++ = 90-100% control at 100 ppm) | 0 | 0 | ++ (++ = 90-100% control at 400 ppm) | - (- = 0-19% control at 400 ppm) | 100 | +++ (+++ = 90-100% control at 100 ppm) |  |  |  | 
8 | CC(Cc1ccccc1)Oc1ncnc2ccccc12 (stereo not drawn) [Example 18, 4-(1-methyl-2-phenylethoxy)quinazoline] | ++ (++ = 90-100% control at 400 ppm) | 0 | + (+ = 20-89% control at 400 ppm) | 0 | 100 | ++ (++ = 90-100% control at 400 ppm) | - (- = 0-19% control at 400 ppm) | 0 | + (+ = 20-89% control at 400 ppm) |  |  |  | 
9 | c1ccc2c(c1)Cc1cc(CCOc3ncnc4ccccc34)ccc1-2 [Example 20, 4-[2-(9H-fluoren-2-yl)ethoxy]quinazoline] | + (+ = 20-89% control at 400 ppm) | 100 | ++ (++ = 90-100% control at 400 ppm) | 60 | 100 | ++ (++ = 90-100% control at 400 ppm) |  | 100 | + (+ = 20-89% control at 400 ppm) |  |  |  | 
10 | CCOc1ccc(CCOc2ncnc3ccccc23)cc1OC [Example 21, 4-[2-(4-ethoxy-3-methoxyphenyl)ethoxy]quinazoline] | +++ (+++ = 90-100% control at 100 ppm) | 60 | +++ (+++ = 90-100% control at 100 ppm) | 0 | 100 | +++ (+++ = 90-100% control at 100 ppm) | - (- = 0-19% control at 400 ppm) | 80 | +++ (+++ = 90-100% control at 100 ppm) |  |  |  | 
11 | Brc1ccc(CCOc2ncnc3ccccc23)cc1 [Example 22, 4-[2-(4-bromophenyl)ethoxy]quinazoline] | +++ (+++ = 90-100% control at 100 ppm) | 20 | +++ (+++ = 90-100% control at 100 ppm) | 0 | 0 | +++ (+++ = 90-100% control at 100 ppm) | - (- = 0-19% control at 400 ppm) | 80 | +++ (+++ = 90-100% control at 100 ppm) |  |  |  | 
12 | c1ccc2c(CCNc3ncnc4ccccc34)cccc2c1 [Example 23, N-[2-(1-naphthyl)ethyl]-4-quinazolinamine] | + (+ = 20-89% control at 400 ppm) | 0 | + (+ = 20-89% control at 400 ppm) | 0 | 0 | - (- = 0-19% control at 400 ppm) | - (- = 0-19% control at 400 ppm) | 0 | + (+ = 20-89% control at 400 ppm) | 0 | 0 | 0 | 0
13 | c1ccc2cc(CCNc3nc(NCCc4ccc5ccccc5c4)c4ccccc4n3)ccc2c1 [Example 32, N,N'-bis[2-(2-naphthyl)ethyl]-2,4-quinazolinediamine] | + (+ = 20-89% control at 400 ppm) | 0 | - (- = 0-19% control at 400 ppm) | 0 | 0 | - (- = 0-19% control at 400 ppm) | - (- = 0-19% control at 400 ppm) | 0 | - (- = 0-19% control at 400 ppm) | 0 | 0 | 0 | 0
14 | FC(F)(F)c1ccc(CCOc2ncnc3ccccc23)cc1 [Example 134, 4-[2-[4-(trifluoromethyl)phenyl]ethoxy]quinazoline] |  | 100 | +++ (+++ = 90-100% control at 100 ppm) | 100 | 0 | +++ (+++ = 90-100% control at 100 ppm) |  | 100 | +++ (+++ = 90-100% control at 100 ppm) | 90 | 60 | 0 | 100
